How the values were obtained:
[1] = Pharmacological tests (general statement on anti-hepatitis, liver function and anti-ulcer activity); format: in vivo; settings: in words
acetaldehyde toxicity = test: Protective activity against acetaldehyde toxicity (death rate within 24 hours); format: in vivo, Rats; settings: for Death rate / No. of dead animals (n/10): 30 min before acetaldehyde 1,200 mg/kg, 24 h
Protocol: Rats kept fasting with a supply of drinking water were weighed and divided into groups in such a manner that the mean body weight was uniform among the groups, with each group consisting of 10 heads. The rats were given acetaldehyde orally at a dose of 1,200 mg/kg, and the death rate within 24 hours was determined, wherein the test drug substances were administered orally 30 min before the application of acetaldehyde, with the vehicle (0.5% aqueous sodium carboxymethylcellulose) alone being given to a control group.

[2] = tested on: Stomach injury through water-immersion constraint stress; test: Anti-ulcer test: stomach injury through water-immersion constraint stress; format: in vivo, male rats of KBL Wistar strain
Protocol: The rats were divided into groups each consisting of 8 heads in such a way that their mean body weights were nearly uniform among the groups, stress-loaded by soaking the animals placed in a stress cage of Univ. of Tokyo type in a water tank at 23° C. up to the xiphoid and then sacrificed through cervical vertebrae dislocation 7.5 hours later. The stomachs were removed and treated with formalin, and individual ulcers formed in the glandular portion of the stomach were measured in length (mm), with the measured ulcer lengths being summed for each rat. The test compound, suspended in a 0.5% aqueous solution of sodium carboxymethylcellulose, was given to the test group orally at a dose of 10 ml/kg body weight 30 min before the water-soaking constraint, whereas the vehicle alone was applied to a control group.

[3] = tested on: Stomach injury with hydrochloric acid/ethanol; test: Anti-ulcer test: stomach injury with hydrochloric acid/ethanol; format: in vivo, male rats of KBL Wistar strain
Protocol: The rats were divided into groups each consisting of 8 heads in such a way that their mean body weights were nearly uniform among the groups, treated by oral administration of hydrochloric acid/ethanol (0.15 mole hydrochloric acid solution in 80% ethanol) at a dose of 5 ml/kg body weight and sacrificed through cervical vertebrae dislocation 1 hour after administration. The stomachs were removed and treated with formalin, and individual ulcers formed in the glandular portion of the stomach were measured in length (mm), with the measured ulcer lengths summed for each rat. The test compound was suspended in a 0.5% aqueous solution of sodium carboxymethylcellulose, and the suspension was given to the test group orally at a dose of 10 ml/kg body weight 30 min before administration of hydrochloric acid/ethanol, whereas the vehicle (0.5% aqueous sodium carboxymethyl-cellulose) alone was applied to a control group.

[4] = tested on: isolated liver cells of rats; test: Disorder of isolated liver cells (carbon tetrachloride vapor; ALT and AST leached out); format: cell-based; settings: for ALT, mean ± S.D. / AST, mean ± S.D.: 37° C., 30 min, * p < 0.05
Protocol: Isolated liver cells of rats were prepared by means of the Segren's collagenase irrigation method, whereby a liver cell suspension was prepared to a concentration of […]. Into 2 ml of the suspension placed in an Erlenmeyer flask was put a test tube of about 0.5 ml capacity containing a 25% carbon tetrachloride solution in olive oil to saturate the reaction system with carbon tetrachloride vapor, and after the flask was tightly stoppered, preincubation was carried out at 37° C. for 30 min. One ml of a solution of the test compound in Hunk's solution was added to the suspension of liver cells, while 1 ml of Hunk's solution was added to a control. After the reaction was allowed to proceed at 37° C. for 30 min, a specifically determined volume of the reaction solution was pipetted out and immediately centrifuged under 500 g for 30 seconds, and ALT and AST leached out into the supernatant liquid were determined for activity by the Lippie method.

[5] = tested on: Hepatopathy in mice (carbon tetrachloride); test: Anti-hepatitis test: hepatopathy in mice (carbon tetrachloride); format: in vivo, ddy strain male mice
Protocol: A group of 8 ddy strain male mice (weighing about 30 g) kept fasting from the previous day was treated by intraperitoneal injection of 0.5% carbon tetrachloride in olive oil at a dose of 0.6 ml and thereafter allowed free access to food. Three hours after the administration of carbon tetrachloride, the test compound suspended in powdered gum arabic was given to the animals orally at a dose of 200 mg/kg, and blood samples were drawn from the mice under anesthesia with ether through the abdominal descending aorta 24 hours after the administration of carbon tetrachloride. The collected blood was centrifuged at a rate of 3,000 rpm for 15 min, followed by measurement of the activities of aspartate transaminase (AST) and alanine transaminase (ALT) by means of the Lippie method.

[6] = tested on: Rats of KBL Wistar strain; test: Acute toxicity test; format: in vivo; settings: 7 day period
Protocol: Rats of KBL Wistar strain (weighing about […]), divided into groups each consisting of 3 heads, were treated through oral administration of the test compound suspended in powder gum arabic, followed by observation for any abnormalities over a 7 day period to find the number of dead animals.

[7] = 50 mg/kg orally, vs Vehicle No. 1
[8] = conc. of test soln. 0.0125 mg/dl
[9] = conc. of test soln. 0.025 mg/dl
[10] = 200 mg/kg orally 3 h after carbon tetrachloride, blood 24 h after carbon tetrachloride, * p < 0.05

For `NCCS(=O)(=O)[O-].NCCS(=O)(=O)[O-].[Zn+2]` [TTZ, Bis(2-aminoethanesulfonic acid)zinc], which “anti-hepatitis, liver function improving and anti-ulcer activity” value [1] is on record?
The value was “more markedly potent anti-ulcer activity as well as comparable anti-hepatitis and liver function improving activities”.

What about the Death rate (acetaldehyde toxicity; 150 mg/kg orally) of the same compound?
The Death rate was 30%.

And the “No. of dead animals (n/10)” value (acetaldehyde toxicity; 150 mg/kg orally)?
The value was 3/10.

And the Death rate (acetaldehyde toxicity; 300 mg/kg orally)?
Its Death rate is 0%.

And the “No. of dead animals (n/10)” value (acetaldehyde toxicity; 300 mg/kg orally)?
The value was 0/10.

What about the “protective activity against the lethal toxicity of acetaldehyde” value (acetaldehyde toxicity; in words) of the same compound?
Its value is “distinct protective activity against the lethal toxicity of acetaldehyde at lower doses than FTZ, which activity was shown to be more potent than that of 2-aminoethanesulfonic acid”.

What about the Incidence of ulcer ([2]; 50 mg/kg orally) of the same compound?
Its Incidence of ulcer is 8/8.

What about the “Ulcer coefficient (mm) mean ± S.E.” value ([2]; 50 mg/kg orally) of the same compound?
Its value is 19.9 ± 4.6 mm.

And the Suppression % [2, 7]?
Its Suppression % is 37.6%.

And the Incidence of ulcer ([2]; 100 mg/kg orally)?
The Incidence of ulcer was 8/8.

What about the “Ulcer coefficient (mm) mean ± S.E.” value ([2]; 100 mg/kg orally, * p < 0.01) of the same compound?
The value was 9.8 ± 2.3 mm.

And the Suppression % ([2]; 100 mg/kg orally, vs Vehicle No. 2)?
The Suppression % was 57.2%.

And the Incidence of ulcer ([2]; 150 mg/kg orally)?
Its Incidence of ulcer is 8/8.

And the “Ulcer coefficient (mm) mean ± S.E.” value ([2]; 150 mg/kg orally, ** p < 0.01)?
The value was 7.6 ± 1.4 mm.

And the Suppression % ([2]; 150 mg/kg orally, vs Vehicle No. 3)?
Its Suppression % is 78.1%.

What about the “UD50 (mg/kg) (95% C.L.)” value ([2]; oral, 30 min before water-soaking constraint) of the same compound?
Its value is 72.8 mg/kg.

And the Incidence of ulcer ([3]; 12.5 mg/kg orally)?
The Incidence of ulcer was 8/8.

What about the “Ulcer coefficient (mm) mean ± S.E.” value ([3]; 12.5 mg/kg orally) of the same compound?
The value was 32.2 ± 4.9 mm.

What about the Suppression % ([3]; 12.5 mg/kg orally, vs Vehicle No. 3) of the same compound?
Its Suppression % is 11.8%.

And the Incidence of ulcer ([3]; 25 mg/kg orally)?
Its Incidence of ulcer is 8/8.

And the “Ulcer coefficient (mm) mean ± S.E.” value ([3]; 25 mg/kg orally)?
Its value is 24.6 ± 8.8 mm.

And the Suppression % ([3]; 25 mg/kg orally, vs Vehicle No. 2)?
Its Suppression % is 63.3%.

What about the Incidence of ulcer ([3]; 50 mg/kg orally) of the same compound?
Its Incidence of ulcer is 5/8.

And the “Ulcer coefficient (mm) mean ± S.E.” value ([3]; 50 mg/kg orally, * P < 0.01)?
The value was 2.2 ± 1.1 mm.

What about the Suppression % [3, 7] of the same compound?
The Suppression % was 96.3%.

What about the “suppressory activity in the antiulcer test” value ([3]; in words, refers to both anti-ulcer tests) of the same compound?
Its value is “improved suppressory activity in the antiulcer test, as compared with FTZ used as a control”.

What about the “UD50 (mg/kg) (95% C.L.)” value ([3]; oral, 30 min before hydrochloric acid/ethanol) of the same compound?
The value was 22.8 mg/kg.

What about the “ALT, mean ± S.D.” value [4, 8] of the same compound?
Its value is 944.7 ± 61.7 IU.

And the “AST, mean ± S.D.” value [4, 8]?
Its value is 327.9 ± 36.6 IU.

What about the “ALT, mean ± S.D.” value [4, 9] of the same compound?
The value was 637.2 ± 93.7 IU.

What about the “AST, mean ± S.D.” value [4, 9] of the same compound?
The value was 125.7 ± 48.2 IU.

What about the “ALT, mean ± S.D.” value ([4]; conc. of test soln. 0.05 mg/dl) of the same compound?
Its value is 649.1 ± 42.4 IU.

And the “AST, mean ± S.D.” value ([4]; conc. of test soln. 0.05 mg/dl)?
The value was 68.2 ± 7.5 IU.

And the “ALT, mean ± S.D.” value ([4]; conc. of test soln. 0.1 mg/dl)?
The value was 525.1 ± 26.0 IU.

What about the “AST, mean ± S.D.” value ([4]; conc. of test soln. 0.1 mg/dl) of the same compound?
Its value is 44.3 ± 11.1 IU.

And the “suppressory activity (isolated liver cells)” value ([4]; in words)?
Its value is “suppressory activity equal to that of FTZ but clearly superior to that of 2-aminoethanesulfonic acid alone”.

And the “ALT, mean ± S.D.” value [5, 10]?
Its value is 8899.4 ± 927.9 IU.

What about the “AST, mean ± S.D.” value [5, 10] of the same compound?
The value was 7256.9 ± 1464.7 IU.

What about the “suppressory activity (hepatopathy in mice)” value ([5]; 200 mg/kg orally, in words) of the same compound?
The value was “significant suppressory activity equal to that of FTZ”.

What about the “Nd/No (No. of dead animals / total No.)” value ([6]; 1,250 mg/kg oral) of the same compound?
The value was 0/3.

What about the “Nd/No (No. of dead animals / total No.)” value ([6]; 2,500 mg/kg oral) of the same compound?
The value was 0/3.

And the “Nd/No (No. of dead animals / total No.)” value ([6]; 5,000 mg/kg oral)?
The value was 0/3.

And the death of animals ([6]; doses up to 5,000 mg/kg oral, in words)?
The death of animals was “did not cause any animal to die”.

From patent US5489609A (Zaidan Hoijn Seisan Kaihatsu Kagaku Kenkyusho, priority 1992, dated 1996)
